From PMC9696366, “Flavones, Flavonols, Lignans, and Caffeic Acid Derivatives from Dracocephalum moldavica and Their In Vitro Effects on Multiple Myeloma and Acute Myeloid Leukemia” (International Journal of Molecular Sciences, 2022)

Assays:
Molm-13 cells [1] = experiment: Apoptosis measurement (AnnexinV/PI staining) on AML cells; assay type: cell-based; conditions: for EC50: best-fit model; for viability at 12.5 µM: Molm-13, 12.5 µM; for viability at 12.5 µM / viability at 25 µM / viability at 50 µM: 48 h, read-out: % Alive (cells alive of control); for viability at 25 µM: Molm-13, 25 µM; for viability at 50 µM: Molm-13, 50 µM; for Cytotoxic effect / induction of apoptosis (in words): Molm-13, 12.5-50 µM
Procedure: (§1) Cytotoxicity was measured as induction of apoptosis in myeloma cell line KMS-12-PE and AML cell line Molm-13, staining the cells with AnnexinV-fluorescein isothiocyanate (AnnexinV-FITC) and propidium iodide (PI). Cell lines were purchased from DSMZ (Braunschweig, Germany) and routinely fingerprinted and tested for mycoplasma negativity. All cell lines were grown in RPMI-1640 medium (Life Technologies, Paisley, UK), and supplemented with 10% fetal calf serum (FCS; PAA, Linz, Austria), L-glutamine 100 µg/mL, and penicillin-streptomycin 100 U/mL. Compounds were dissolved in DMSO at a stock concentration of 50 mM and stored at −20 °C. Briefly, 0.5 × 10^6 cancer cells/mL were incubated for 24 h and 48 h with or without the tested compounds at indicated concentrations. Analyses were performed in duplicates and a solvent control was included. The extent of non-apoptotic cells (AnnexinV/propidium iodide negativity) was calculated as the percentage of viable cells in respect to the untreated control. Data are shown as the mean percentage of viable cells +/− standard deviation (SD) (error bars).

KMS-12-PE cells [2] = experiment: Apoptosis measurement (AnnexinV/PI staining) on myeloma cells; assay type: cell-based; conditions: for EC50 / viability at 12.5 µM / viability at 25 µM / viability at 50 µM: 48 h; for EC50: best-fit model; for viability at 12.5 µM / viability at 25 µM / viability at 50 µM: read-out: % Alive (cells alive of control); for Cytotoxic effect / induction of apoptosis (in words): 12.5-50 µM
Procedure: as §1

Molm-13 cells [3] = experiment: Proliferation, modified MTT assay (EZ4U) on AML cells; assay type: cell-based; conditions: 48 h; for inhibition at 2.5 µM: Homo sapiens
Procedure: (§2) Proliferation was measured using a modified MTT assay (EZ4U kit, Biomedica, Vienna, Austria) according to the manufacturer’s instructions. In brief, 2.5 × 10^4 (Molm-13)—5.0 × 10^4 cells (KMS-12-PE cells) were seeded in 96-well plates and substances were added as indicated. Different concentrations are due to the different doubling time of the cells (24 h vs. 48 h). Cells were incubated for 48 h and during the last 7 h of incubation, 3-(4,5-dimethylthiazol-2-yl)-2,5-diphenyltetrazolium bromide was added as a substrate. Reduction of the tetrazolium salt to formazan by the mitochondrial activity of the growing cells was measured as optical density at 492 nm (with 620 nm as reference) on a plate reader. Proliferation (mean +/− SD) was calculated as the percentage of control (without substances). Concentrations used were 10 µM/5 µM/2.5 µM for all substances. Gilteritinib was used as a positive control at 2.5 µM.

KMS-12-PE cells [4] = experiment: Proliferation, modified MTT assay (EZ4U) on myeloma cells; assay type: cell-based; conditions: 10 to 2.5 µM (gilteritinib 2.5 µM), 48 h
Procedure: as §2

FLT3 = target: T1, FLT3 (Homo sapiens, UniProt P36888); experiment: FLT3 kinase assay (Z'-LYTE); assay type: biochemical; conditions: 6.25 nM (lowest concentration), 20 ng FLT3 protein
T1 construct: purchased Thermo Fisher Scientific Inc. (Waltham, MA, USA)
T1 sequence (P36888 27-993): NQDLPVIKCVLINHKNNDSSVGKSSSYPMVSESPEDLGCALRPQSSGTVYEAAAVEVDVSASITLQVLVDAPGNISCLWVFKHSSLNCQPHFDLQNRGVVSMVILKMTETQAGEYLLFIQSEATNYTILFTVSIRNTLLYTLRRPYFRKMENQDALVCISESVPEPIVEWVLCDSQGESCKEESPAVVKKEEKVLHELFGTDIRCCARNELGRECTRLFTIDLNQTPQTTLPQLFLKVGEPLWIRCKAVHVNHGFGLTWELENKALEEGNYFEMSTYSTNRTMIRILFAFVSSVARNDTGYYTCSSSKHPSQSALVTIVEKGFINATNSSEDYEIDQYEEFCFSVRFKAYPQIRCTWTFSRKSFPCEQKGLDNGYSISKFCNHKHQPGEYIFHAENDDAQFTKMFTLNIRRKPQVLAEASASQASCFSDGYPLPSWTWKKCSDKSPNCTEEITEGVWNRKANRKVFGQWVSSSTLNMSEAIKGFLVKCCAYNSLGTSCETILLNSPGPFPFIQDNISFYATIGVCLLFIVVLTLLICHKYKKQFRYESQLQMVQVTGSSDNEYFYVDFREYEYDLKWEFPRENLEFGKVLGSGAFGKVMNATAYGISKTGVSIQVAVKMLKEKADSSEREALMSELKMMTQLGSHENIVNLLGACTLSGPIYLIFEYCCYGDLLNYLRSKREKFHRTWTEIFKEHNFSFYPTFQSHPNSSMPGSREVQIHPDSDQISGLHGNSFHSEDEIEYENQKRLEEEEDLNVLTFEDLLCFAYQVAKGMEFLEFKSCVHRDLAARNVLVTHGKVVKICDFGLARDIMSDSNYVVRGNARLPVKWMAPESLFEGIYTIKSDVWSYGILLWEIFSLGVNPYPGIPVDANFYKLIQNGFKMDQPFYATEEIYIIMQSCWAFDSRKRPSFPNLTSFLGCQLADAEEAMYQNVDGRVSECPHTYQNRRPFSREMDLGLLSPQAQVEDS
Procedure: FLT3 inhibitory activity of compounds 1 and 3 was determined using the Z’-LYTE screening protocol. Z’-LYTE Kinase Assay—Tyrosine 2 Peptide Kit and FLT3 were purchased from Thermo Fisher Scientific Inc. (Waltham, MA, USA). The assay was performed according to the manufacturer’s instructions using a kinase buffer (50 mM HEPES pH 7.5, 0.01% BRIJ-35, 10 mM MgCl2, 1 mM EGTA) containing 0.01 to 20 ng of FLT3. Compounds were measured at concentrations of 50 nM/25 nM/12.5 nM/6.25 nM using gilteritinib as a positive control.

[5] = Molm-13, 2.5 µM, compared to untreated cells

| Compound | EC50 (Molm-13 cells [1]; Homo sapiens, MOLM-13, 48 h) [µM] | viability at 12.5 µM (Molm-13 cells [1]; Homo sapiens) [%] | viability at 25 µM (Molm-13 cells [1]; Homo sapiens) [%] | viability at 50 µM (Molm-13 cells [1]; Homo sapiens) [%] | EC50 (KMS-12-PE cells [2]) [µM] | viability at 12.5 µM (KMS-12-PE cells [2]; Homo sapiens) [%] | viability at 25 µM (KMS-12-PE cells [2]; Homo sapiens) [%] | viability at 50 µM (KMS-12-PE cells [2]; Homo sapiens) [%] | EC50 (KMS-12-PE cells [2]; Homo sapiens) [µM] | Cytotoxic effect / induction of apoptosis (in words) (Molm-13 cells [1]) | Cytotoxic effect / induction of apoptosis (in words) (KMS-12-PE cells [2]) | inhibition at 2.5 µM (Molm-13 cells [3]; [5]) [%] | Inhibition of proliferation (Molm-13 cells [3]; Molm-13, concentrations from 10 to 2.5 µM, compared to untreated cells) | EC50 (Molm-13 cells [1]; Molm-13, 48 h) [µM] | Inhibition of proliferation (in words) (KMS-12-PE cells [4]) | inhibition at 0.00625 µM (FLT3) [%] | Effect on proliferation (in words) (Molm-13 cells [3]; Molm-13, 2.5 µM, positive control) |
| --- | --- | --- | --- | --- | --- | --- | --- | --- | --- | --- | --- | --- | --- | --- | --- | --- | --- |
| COc1ccc(-c2cc(=O)c3c(O)cc(O)cc3o2)cc1O [Compound 6, diosmetin] | > 50 | 91.5 ± 2.8 | 76.2 ± 6.7 | 39.8 ± 5.8 | 25.7 | 77.3 ± 6.9 | 44.2 ± 19 | 31.1 ± 5.3 | 26 | – | – | – | – | – | – | – | – |
| O=c1c(O)c(-c2ccc(O)cc2)oc2cc(O)cc(O)c12 [Compound 7, kaempferol] | > 50 | 93.1 ± 5.1 | 83.1 ± 5.7 | 50.2 ± 11.4 | – | 98 ± 2.7 | 91.2 ± 15 | 76.3 ± 17.3 | > 50 | induced apoptosis | induced apoptosis | – | – | – | – | – | – |
| O=c1c(O)c(-c2ccc(O)c(O)c2)oc2cc(O)cc(O)c12 [Compound 8, quercetin] | > 50 | 100 ± 2.2 | 94.4 ± 3.9 | 79.8 ± 10.2 | – | 96.6 ± 2.7 | 79 ± 4.8 | 43.7 ± 8.3 | > 50 | induced apoptosis | induced apoptosis | – | – | – | – | – | – |
| O=C(O)/C=C/c1ccc(O)c(O)c1 [Compound 11, caffeic acid] | > 50 | 96.9 ± 4.6 | 98.1 ± 3.8 | 98.8 ± 2.8 | – | 102 ± 1.8 | 102.5 ± 0.9 | 102.6 ± 0.5 | > 50 | – | – | – | – | – | – | – | – |
| COc1ccc(-c2cc(=O)c3c(O)c(OC)c(OC)cc3o2)cc1OC [Compound 2, 5-desmethylsinensetin] | > 50 | 91.1 ± 3.4 | 90.9 ± 0.4 | 88.6 ± 1.8 | – | 94.6 ± 10.2 | 93.4 ± 9.3 | 93.1 ± 10.2 | > 50 | no effects | no effects | – | – | – | – | – | – |
| O=c1cc(-c2ccc(O)c(O)c2)oc2cc(O)cc(O)c12 [Compound 5, luteolin] | 42.3 | 86.5 ± 5.2 | 72.4 ± 4 | 30.2 ± 13.7 | – | 80.3 ± 5.4 | 70.5 ± 5.6 | 50.3 ± 18.4 | > 50 | – | – | – | – | – | – | – | – |
| COc1c(OC)c(O)c2c(=O)cc(-c3ccc(O)cc3)oc2c1OC [Compound 3, xanthomicrol] | ~28 | 56.4 ± 9.1 | 53.5 ± 1 | 47 ± 2.7 | – | 69.5 ± 16 | 62.6 ± 13.1 | 55.4 ± 13.1 | 45.4 | – | – | 84 | up to 93% | 28 | marginally | 88 | – |
| COc1cc(/C=C/C(=O)O[C@H](Cc2ccc(O)c(O)c2)C(=O)O)ccc1O [Compound 13, (R)-(+)-3′-O-methylrosmarinic acid] | > 50 | 99.6 ± 2.6 | 99.4 ± 1.9 | 97.8 ± 4 | – | 102 ± 1.6 | 101 ± 1.8 | 101 ± 3.4 | > 50 | – | – | – | – | – | – | – | – |
| COc1cc([C@H]2OC[C@H]3[C@@H]2CO[C@@H]3c2ccc3c(c2)OCO3)ccc1O [Compound 9, (+)-piperitol] | > 50 | 102 ± 1.3 | 100 ± 2.1 | 97.5 ± 2.4 | – | 102.8 ± 0.8 | 100.1 ± 0.8 | 97.1 ± 4.1 | > 50 | – | – | – | – | – | – | – | – |
| COc1cc2oc(-c3ccc(O)cc3)cc(=O)c2c(O)c1OC [Compound 1, cirsimaritin] | ~22 | 77.3 ± 9 | 48.4 ± 12 | 12.9 ± 4.1 | – | 86.8 ± 14.5 | 76.6 ± 25.6 | 58.9 ± 28.6 | > 50 | induced apoptosis | induced apoptosis | 72 | – | 21.7 | marginally | 81 | – |
| O[C@@H]1O[C@H](c2ccc3c(c2)OCO3)[C@H]2CO[C@H](c3ccc4c(c3)OCO4)[C@H]21 [Compound 10, (+)-9α-hydroxysesamin] | > 50 | 101 ± 1.4 | 100 ± 2 | 98.7 ± 1.7 | – | 99 ± 0.6 | 96.7 ± 0.5 | 89.4 ± 0.8 | > 50 | – | – | – | – | – | – | – | – |
| O=C(/C=C/c1ccc(O)c(O)c1)O[C@H](Cc1ccc(O)c(O)c1)C(=O)O [Compound 12, (R)-(+)-rosmarinic acid] | > 50 | 97.6 ± 3.2 | 98.5 ± 3.6 | 100.8 ± 0.6 | – | 100.2 ± 0.9 | 102 ± 1.5 | 98.2 ± 1.5 | > 50 | – | – | – | – | – | – | – | – |
| O=c1cc(-c2ccc(O)cc2)oc2cc(O)cc(O)c12 [Compound 4, apigenin] | > 50 | 98 ± 1.6 | 89.5 ± 3.9 | 58.4 ± 14.2 | – | 85.5 ± 10.6 | 69.4 ± 31.3 | 59.6 ± 16.1 | > 50 | – | – | – | – | – | – | – | – |
| CCc1nc(C(N)=O)c(Nc2ccc(N3CCC(N4CCN(C)CC4)CC3)c(OC)c2)nc1NC1CCOCC1 [gilteritinib, reference compound] | – | – | – | – | – | – | – | – | – | – | – | – | – | – | – | – | high effect |
